Data on four compounds can be found in publication PMC9238401, “Peptide Conjugates Derived from flg15, Pep13, and PIP1 That Are Active against Plant-Pathogenic Bacteria and Trigger Plant Defense Responses” (Applied and Environmental Microbiology, 2022).

Data set [1] has as its system tomato plants cv. Rio Grande, defense-related genes. Briefly: Induction of defense gene expression in tomato plants (RT-qPCR). Type of data set: in vivo. Particulars: peptide sprayed at 125 μM, leaves 24 h after application, ΔΔCT vs actin and nontreated control; for PR1 expression, fold induction: above 2 = overexpression. The protocol:
The capacity to induce the expression of genes related to defense response in tomato plants was evaluated for the peptide conjugates flg15-BP387, flg15-BP475, and PIP1-BP475 and the monomers flg15 and PIP1 (Table 2).
Seeds of tomato cv. Rio Grande plants were sown in hydroponic seed plugs (rockwool) and germinated and grown in an environmentally controlled greenhouse at 25 ± 2°C (day) and 18 ± 2°C (night), with a minimum relative humidity of 60% and with a photoperiod of 16 h light and 8 h dark. Then, 2-week-old seedlings (two cotyledons) were transplanted into rockwool plugs (7.5 × 7.5 × 6.5 cm; Gordan Iberica, Spain). Tomato plants were maintained until use under the same environmental conditions.
The 2-week-old tomato plants cv. Rio Grande were sprayed with aqueous solutions of the peptides flg15-BP387, flg15-BP475, PIP1-BP475, flg15, and PIP1 at 125 μM until the runoff point. […] Water-sprayed plants were used as nontreated controls (NTC). The experimental design consisted of three replicates of three plants per treatment. Leaf samples were collected 24 h after product application and processed to extract RNA for reverse transcriptase quantitative PCR (RT-qPCR) assays. Plant material was roughly ground in liquid nitrogen and was transferred into tubes with two glass beads. Afterward, the frozen samples were finely ground using the TissueLyser II system (Qiagen, Hilden, Germany) at a frequency of 30 Hz for 1 min. Total RNA was extracted from leaves (100 mg) using PureLink plant RNA reagent (Invitrogen, Life Technologies) according to the manufacturer’s manual. The RNA was solubilized in RNase-free water (Ambion, Thermo Fisher Scientific, USA) and was routinely subjected to DNase treatment (Ambion Turbo DNA-free; Invitrogen Life Technologies, Carlsbad, CA, USA) to remove any contaminant DNA. In each step, the RNA was quantified using a NanoDrop ND-1000 spectrophotometer (Nanodrop Technologies, Wilmington, DE, USA). First-strand cDNA was generated from leaf RNA using reverse transcriptase (high-capacity cDNA reverse transcription kit; Applied Biosystems, Foster City, CA, USA) according to the manufacturer’s manual.
To test gene defense induction in the treated tomato plants, a quantitative PCR (qPCR) assay was performed. qPCR was carried out in a fluorometric thermal cycler (7500 Fast real-time PCR system; Applied Biosystems, USA) by using a Mix SYBR green PCR master mix (Applied Biosystems, Foster City, CA, USA) as previously described ([49]). Melting curve analysis was performed after each amplification to verify amplification specificity. A constitutive gene (actin) was used as a reference control ([52]), and the following genes implicated in plant defense response were analyzed using the previously described primers: pathogenesis-related protein-1 (PR1) and chitinase A (PR3) ([81]), subtilisin-like protease P69G (PR7), peroxidase 1 (PR9), WRKY3 transcription factor (WRKY3), hairpin-induced protein-like (Harp), blue-copper-binding protein gene (BCB) and ethylene responsive transcription factor (ERF) ([71]), and basic β-1,3-endoglucanase (GluB) ([52]). The primer concentration was 100 nM for all the genes except for the actin gene, for which the concentration was 300 nM. A calibration curve was prepared by cloning the corresponding target sequence in the pSpark cloning vector (Canvax, Córdoba, Spain), which was used to transform Escherichia coli DH5α. Plasmids were purified (Qiagen Iberia, S.L., Madrid, Spain), plasmid copies were quantified, and decimal dilutions were prepared.
(Quantitative PCR measures a nucleic acid by following its amplification.)

Another data set deals with horse erythrocytes. Particulars: TRIS buffer pH 7.2, 1 h, 37°C, absorbance 540 nm, relative to melittin 100 μM, ± confidence interval (α = 0.05). A digest of the protocol:
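Hemolysis measured as absorbance at 540 nm of supernatant, expressed as percent of melittin-lysed control after buffer subtraction. Compound solutions (750, 500, 300, 100 μM, Tris-buffered saline pH 7.2) were combined 1:1 with washed horse red cells for 1 h, 37°C, shaking.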

A further data set relates to tobacco leaves. Briefly: Effect of peptide infiltration on tobacco leaves (phytotoxicity). Type of data set: in vivo. The method in brief:
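Phytotoxicity was scored as necrotic lesion diameter 48 h post-infiltration. Each peptide was infiltrated at 50, 150 or 250 μM into fully expanded tobacco leaf mesophyll, on ≥3 leaves from different plants, alongside water and same-molar melittin controls.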

The mark [2] stands for this setting: 100 μL infiltrated into mesophyll, lesion diameter 48 h after infiltration, at least three leaves, ± confidence interval (α = 0.05).

Marks after values point to notes of the source that are not given here. Non-standard residues stand in square brackets, D forms with d. Residues, ends and D or L forms follow the SMILES beside them. *: point of attachment. Butyryl = CCCC(=O)*

Take `CCCC(=O)NCCCC[C@H](NC(=O)[C@H](CCCCN)NC(=O)[C@H](CC(C)C)NC(=O)[C@@H](NC(=O)[C@H](CCCCN)NC(=O)[C@H](CCCCN)NC(=O)[C@@H](Cc1ccccc1)NC(=O)[C@H](CC(C)C)NC(=O)[C@H](CCCCN)NC(=O)[C@H](CCCCN)NC(=O)[C@H](Cc1c[nH]cn1)NC(=O)[C@@H](NC(=O)[C@H](Cc1c[nH]cn1)NC(=O)[C@@H](NC(=O)CNC(=O)[C@H](Cc1ccc(O)cc1)NC(C)=O)[C@@H](C)CC)[C@@H](C)O)[C@@H](C)CC)C(=O)N[C@@H](CC(C)C)C(N)=O` [PIP1-BP475] (Ac-YGIHTHKKL[dF]KKILKK(Butyryl)L-NH2): in data set [1], the “BCB expression, fold induction” value was 2.07 ± 0.11^d fold; the “ERF expression, fold induction” value came to 0.81 ± 0.30 fold; the “GluB expression, fold induction” value is 0.80 ± 0.07 fold; the “Harp expression, fold induction” value is 2.25 ± 0.12^d fold. In data set [1], the “PR3 expression, fold induction” value is on record as 7.36 ± 1.05^d fold; the “PR7 expression, fold induction” value is given as 1.29 ± 0.19^d fold; the “PR9 expression, fold induction” value is 1.99 ± 0.11^d fold; the “WRKY3 expression, fold induction” value is listed as 1.46 ± 0.11 fold. Also, in data set [1], the “PR1 expression, fold induction” value turned out to be 0.64 ± 0.36 fold. For the same compound, in the data set with horse erythrocytes, the “Percent hemolysis at 50 μM” value was 4 ± 0.4%, the “Percent hemolysis at 150 μM” value came to 11 ± 0.5%, the “Percent hemolysis at 250 μM” value worked out at 18 ± 0.1% and the “Percent hemolysis at 375 μM” value was determined as 24 ± 0.5%. For the same compound, in the data set with tobacco leaves (setting [2]), the “Size of the lesions in infiltrated tobacco leaves at 50 μM” value (from here on “Size of the lesions … at 50 μM”) amounted to 0.47 ± 0.13 cm, the “Size of the lesions in infiltrated tobacco leaves at 150 μM” value (from here on “Size of the lesions … at 150 μM”) was determined as 1.03 ± 0.06 cm and the “Size of the lesions in infiltrated tobacco leaves at 250 μM” value (shortened to “Size of the lesions … at 250 μM”) turned out to be 1.17 ± 0.06 cm.
Turning to “RINSAKDDAAGLQIA-OH [flg15, plant defense elicitor peptide, 15 amino acids of the N-terminal conserved domain of bacterial flagellin; monomer]”, in data set [1], the “BCB expression, fold induction” value is 8.14 ± 2.48^d fold; the “ERF expression, fold induction” value is on record as 1.09 ± 0.44 fold; the “GluB expression, fold induction” value is 6.05 ± 2.40^d fold; the “Harp expression, fold induction” value is reported as 4.28 ± 1.49^d fold. For the same compound, in data set [1], the “PR3 expression, fold induction” value is listed as 17.68 ± 4.18^d fold; the “PR7 expression, fold induction” value was 9.26 ± 2.06^d fold; the “PR9 expression, fold induction” value is 6.24 ± 2.25^d fold; the “WRKY3 expression, fold induction” value is given as 1.41 ± 0.84 fold. Also, the “PR1 expression, fold induction” value in data set [1] is reported as 8.32 ± 3.35^d fold. In the data set on horse erythrocytes, the “Percent hemolysis at 50 μM” value came out at 0 ± 0%, the “Percent hemolysis at 150 μM” value is on record as 0 ± 0%, the “Percent hemolysis at 250 μM” value was determined as 0 ± 0% and the “Percent hemolysis at 375 μM” value was 0 ± 0%. Also, in the data set with tobacco leaves (setting [2]), the “Size of the lesions … at 50 μM” value was 0 ± 0 cm, the “Size of the lesions … at 150 μM” value is listed as 0 ± 0 cm and the “Size of the lesions … at 250 μM” value is 0 ± 0 cm.
As for `CCCC(=O)NCCCC[C@H](NC(=O)[C@H](CCCCN)NC(=O)[C@H](CC(C)C)NC(=O)[C@@H](NC(=O)[C@H](CCCCN)NC(=O)[C@H](CCCCN)NC(=O)[C@@H](Cc1ccccc1)NC(=O)[C@H](CC(C)C)NC(=O)[C@H](CCCCN)NC(=O)[C@H](CCCCN)NC(=O)[C@H](C)NC(=O)[C@@H](NC(=O)[C@H](CCC(N)=O)NC(=O)[C@H](CC(C)C)NC(=O)CNC(=O)[C@H](C)NC(=O)[C@H](C)NC(=O)[C@H](CC(=O)O)NC(=O)[C@H](CC(=O)O)NC(=O)[C@H](CCCCN)NC(=O)[C@H](C)NC(=O)[C@H](CO)NC(=O)[C@H](CC(N)=O)NC(=O)[C@@H](NC(=O)[C@H](CCCNC(=N)N)NC(C)=O)[C@@H](C)CC)[C@@H](C)CC)[C@@H](C)CC)C(=O)N[C@@H](CC(C)C)C(N)=O` [flg15-BP475] (Ac-RINSAKDDAAGLQIAKKL[dF]KKILKK(Butyryl)L-NH2), in data set [1], the “BCB expression, fold induction” value is recorded as 5.84 ± 1.38^d fold; the “ERF expression, fold induction” value was 0.67 ± 0.15^d fold; the “GluB expression, fold induction” value is given as 4.31 ± 0.82^d fold; the “Harp expression, fold induction” value is on record as 3.68 ± 0.91^d fold. Moreover, in data set [1], the “PR3 expression, fold induction” value was 10.96 ± 1.85^d fold; the “PR7 expression, fold induction” value is listed as 5.82 ± 0.78^d fold; the “PR9 expression, fold induction” value is listed as 3.83 ± 0.25^d fold; the “WRKY3 expression, fold induction” value is listed as 1.16 ± 0.26 fold. For the same compound, the “PR1 expression, fold induction” value in data set [1] is recorded as 2.02 ± 0.07^d fold. Also, in the data set with horse erythrocytes, the “Percent hemolysis at 50 μM” value was found to be 7 ± 0.6%, the “Percent hemolysis at 150 μM” value turned out to be 28 ± 2.3%, the “Percent hemolysis at 250 μM” value was 43 ± 2.7% and the “Percent hemolysis at 375 μM” value came out at 46 ± 3.6%. In addition, in the data set with tobacco leaves (setting [2]), the “Size of the lesions … at 50 μM” value amounted to 0.60 ± 0 cm, the “Size of the lesions … at 150 μM” value was found to be 1.20 ± 0 cm and the “Size of the lesions … at 250 μM” value stood at 1.37 ± 0.06 cm.
With “YGIHTH-NH2 [PIP1, plant defense elicitor peptide identified through combinatorial chemistry; monomer]”, in data set [1], the “BCB expression, fold induction” value is given as 1.99 ± 0.40^d fold; the “ERF expression, fold induction” value is 0.58 ± 0.11^d fold; the “GluB expression, fold induction” value is recorded as 0.96 ± 0.32 fold; the “Harp expression, fold induction” value is listed as 1.97 ± 0.45^d fold. Also, in data set [1], the “PR3 expression, fold induction” value is reported as 3.59 ± 1.35^d fold; the “PR7 expression, fold induction” value came out at 1.13 ± 0.26 fold; the “PR9 expression, fold induction” value was 1.23 ± 0.18 fold; the “WRKY3 expression, fold induction” value was 0.94 ± 0.35 fold. Moreover, the “PR1 expression, fold induction” value in data set [1] is listed as 1.00 ± 0.39 fold. In the data set with horse erythrocytes, the “Percent hemolysis at 50 μM” value was 4 ± 0.8%, the “Percent hemolysis at 150 μM” value is 0.5 ± 0.3%, the “Percent hemolysis at 250 μM” value came to 0 ± 2% and the “Percent hemolysis at 375 μM” value is listed as 1 ± 0.1%. For the same compound, in the data set on tobacco leaves (in vivo), the “Size of the lesions … at 50 μM” value is on record as 0 ± 0 cm, the “Size of the lesions … at 150 μM” value is 0 ± 0 cm and the “Size of the lesions … at 250 μM” value is reported as 0 ± 0 cm.
